In US6500846B1, “CDK inhibitors having flavone structure” (LG Chemical, Ltd., priority 1998, dated 2002):

Tests used:
CDK2/cyclin A = molecular target: T1, CDK2/cyclin A (Homo sapiens, UniProt P24941); assay: Inhibitory activity against CDK2/cyclin A enzyme (GST-RB phosphorylation, P32-γ-ATP, scintillation counting); format: biochemical; conditions: 100 μM ATP, GST-RB substrate, 30° C. 30 minutes
T1 construct: made in house; host or cells: insect cells infected with baculoviruses
Protocol: (§1) Analysis of inhibitory activity against CDK2/cyclin A and CDK4/cyclin D1 enzyme.
(§2) The inhibitory activity against CDK2 is measured by referring to Kitagawa, M. et al., Oncogene 9:2549, 1994 and the inhibitory activity against CDK4 is measured by referring to Carlson, B. A. et al., Cancer Research 56:2473,1996.
(§3) As for CDK2, either the extract from the insect cell infected both with baculovirus which expresses CDK2 gene and baculovirus which expresses cyclin A gene or the active enzyme which had been purified therefrom was used. CDK4 enzyme was also obtained from the insect cell infected both with baculovirus expressing CDK4 gene and baculovirus expressing cyclin D1 gene. As the substrate for CDK2, either histon H1 or Rb protein was used. Rb protein was also used as the substrate for CDK4.
(§4) Specifically the activities of enzymes CDK2/cyclin A and CDK4/cyclin D1 were determined according to the following procedure.
(§5) 100 ng of enzyme was reacted in a total 1000 μl of 20 mM Tris (pH 8.0), 100 mM NaCl, 10 mM MgCl2 buffer solution containing 20 μg of GST-RB protein, 100 μM of ATP and 5 μCi of P32-γ-ATP at 30° C. for 30 minutes. Then, the enzyme reaction was stopped by adding EDTA to a concentration of 20 mM. Subsequently, 30 μl of 50% glutathione bead (purchased from Pharmacia) was added to attach GST-RB to the bead, which was washed three times with 20mM Tris (pH 8.0), 100 mM NaCl, 10 mM EDTA solution, and then scintillation counting was carried out. To analyze the inhibitory activity of the compound, the inhibitor having a proper concentration was added to the enzyme reaction solution, and then the enzyme activity was measured according to the above method.
(§6) The inhibitory activity of the compound of formula (1) according to the present invention against CDK2 and CDK4 is represented as IC50 value. The compounds which are not included in Examples(compound 63, 64, 65 and 66) were synthesized and purified according to the same procedure as examples, and then IC50 thereof was measured.

CDK4/cyclin D1 = molecular target: T2, CDK4/cyclin D1 (Homo sapiens, UniProt P11802); assay: Inhibitory activity against CDK4/cyclin D1 enzyme (GST-RB phosphorylation, P32-γ-ATP, scintillation counting); format: biochemical; conditions: CDK4/cyclin D1, 100 μM ATP, GST-RB substrate, 30° C. 30 minutes
T2 construct: made in house; host or cells: insect cells infected with baculoviruses
T2 sequence (P11802 whole entry, species assumed): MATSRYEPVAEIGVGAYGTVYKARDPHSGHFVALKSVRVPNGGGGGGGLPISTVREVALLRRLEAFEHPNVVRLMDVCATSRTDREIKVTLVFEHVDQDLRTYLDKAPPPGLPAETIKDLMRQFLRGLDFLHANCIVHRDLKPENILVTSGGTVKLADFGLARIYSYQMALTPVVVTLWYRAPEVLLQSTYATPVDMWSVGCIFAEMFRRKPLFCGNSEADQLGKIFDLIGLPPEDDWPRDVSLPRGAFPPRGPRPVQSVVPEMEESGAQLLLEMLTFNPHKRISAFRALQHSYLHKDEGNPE
T2 sequence (P24385 whole entry partner, species assumed): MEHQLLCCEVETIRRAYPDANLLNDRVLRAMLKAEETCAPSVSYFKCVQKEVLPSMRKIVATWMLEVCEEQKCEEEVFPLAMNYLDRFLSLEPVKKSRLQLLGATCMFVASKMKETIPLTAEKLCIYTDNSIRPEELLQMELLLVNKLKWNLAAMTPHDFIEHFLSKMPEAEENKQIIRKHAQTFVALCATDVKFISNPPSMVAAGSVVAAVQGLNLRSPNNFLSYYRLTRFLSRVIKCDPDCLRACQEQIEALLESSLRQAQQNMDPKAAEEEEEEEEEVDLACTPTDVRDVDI
Protocol: as §1, §2, §3, §4, §5, §6

Compound | IC50 (CDK2/cyclin A) | IC50 (CDK4/cyclin D1)
COc1ccc(-c2oc3c(Cl)cc(Cl)cc3c(=O)c2O)cc1 [Compound 10, 6,8-dichloro-3-hydroxy-2-(4-methoxy-phenyl)-chromen-4-one] | > 100 µM | > 100 µM
COc1ccc(-c2oc3c([N+](=O)[O-])cc(Cl)cc3c(=O)c2O)cc1 [Compound 9, 6-chloro-3-hydroxy-2-(4-methoxy-phenyl)-8-nitro-chromen-4-one] | > 100 µM | > 100 µM
O=c1c(O)c(-c2ccc(O)c(O)c2)oc2ccc(NS(=O)(=O)c3ccc(-c4ccccn4)s3)cc12 [Compound 37, N-[2-(3,4-dihydroxyphenyl)-3-hydroxy-4-oxo-4H-chromen-6-yl]-5-(2-pyridinyl)-2-thiophenesulfonamide] | 12.5 µM | 4.2 µM
COc1ccc2c(=O)cc(-c3ccc(Cl)cc3)oc2c1 [Compound 1, 2-(4-chloro-phenyl)-7-methoxy-chromen-4-one] | > 200 µM | > 200 µM
O=c1c(O)c(-c2ccc(O)c(O)c2)oc2ccc(NS(=O)(=O)c3cccc(Br)c3)cc12 [Compound 30, 3-bromo-N-[2-(3,4-dihydroxyphenyl)-3-hydroxy-4-oxo-4H-chromen-6-yl]benzenesulfonamide] | 14 µM | 2.1 µM
N#Cc1cccc(NC(=O)Nc2ccc3oc(-c4ccc(O)c(O)c4)c(O)c(=O)c3c2)c1 [Compound 60, N-(3-cyanophenyl)-N′-[2-(3,4-dihydroxyphenyl)-3-hydroxy-4-oxo-4H-chromen-6-yl]urea] | 4.7 µM | 2.7 µM
COc1ccc2oc(-c3ccc4c(c3)OCO4)c(O)c(=O)c2c1 [Compound 5, 2-(benzo[1,3]dioxol-5-yl)-3-hydroxy-6-methoxy-chromen-4-one] | > 100 µM | > 100 µM
O=c1c(O)c(-c2ccc(O)c(O)c2)oc2ccc(NS(=O)(=O)c3ccc(F)c(F)c3)cc12 [Compound 38, N-[2-(3,4-dihydroxyphenyl)-3-hydroxy-4-oxo-4H-chromen-6-yl]-3,4-difluorobenzenesulfonamide] | 19 µM | 2.6 µM
O=c1c(O)c(-c2ccc(O)c(O)c2)oc2ccc(NS(=O)(=O)c3cc(Br)c(Br)s3)cc12 [Compound 34, 4,5-Dibromo-N-[2-(3,4-dihydroxyphenyl)-3-hydroxy-4-oxo-4H-chromen-6-yl]-2-thiophenesulfonamide] | 3 µM | 1 µM
Cc1ccc2oc(-c3ccc(O)c(O)c3)c(O)c(=O)c2c1 [Compound 18, 6-methyl-2-(3,4-dihydroxyphenyl)-3-hydroxy-4H-chromen-4-one] | < 10 µM | < 10 µM
O=c1c(O)c(-c2ccc(O)c(O)c2)oc2c(O)cccc12 [Compound 25, 2-(3,4-dihydroxyphenyl)-3,8-dihydroxy-4H-chromen-4-one] | < 10 µM | < 10 µM
O=C(Nc1ccc2oc(-c3ccc(O)c(O)c3)c(O)c(=O)c2c1)c1ccccc1 [Compound 52, N-[2-(3,4-dihydroxyphenyl)-3-hydroxy-4-oxo-4H-chromen-6-yl]benzamide] | 23 µM | 6 µM
COc1cccc2oc(-c3ccc(O)c(O)c3)c(O)c(=O)c12 [Compound 27, 2-(3,4-dihydroxyphenyl)-3-hydroxy-5-methoxy-4H-chromen-4-one] | < 10 µM | < 10 µM
O=c1c(O)c(-c2ccc(O)c(O)c2)oc2ccc(NS(=O)(=O)c3ccc4ccccc4c3)cc12 [Compound 31, N-[2-(3,4-dihydroxyphenyl)-3-hydroxy-4-oxo-4H-chromen-6-yl]-2-naphthalenesulfonamide] | 35.5 µM | 4.2 µM
COc1ccc2c(=O)c(O)c(-c3ccc(O)c(O)c3)oc2c1 [Compound 23, 2-(3,4-Dihydroxyphenyl)-3-hydroxy-7-methoxy-4H-chromen-4-one] | < 30 µM | < 30 µM
O=C(Nc1ccc2oc(-c3ccc(O)c(O)c3)c(O)c(=O)c2c1)c1ccc(Cl)cc1 [Compound 53, 4-chloro-N-[2-(3,4-dihydroxyphenyl)-3-hydroxy-4-oxo-4H-chromen-6-yl]benzamide] | > 100 µM | 5.6 µM
CN1CCN(c2ccc(S(=O)(=O)Nc3ccc4oc(-c5ccc(O)c(O)c5)c(O)c(=O)c4c3)cc2N)CC1 [Compound 50, 3-amino-N-[2-(3,4-dihydroxyphenyl)-3-hydroxy-4-oxo-4H-chromen-6-yl]-4-(4-methyl-1-piperazinyl)benzenesulfonamide] | > 200 µM | 30 µM
O=c1cc(-c2ccccc2)oc2cc(O)ccc12 [Compound 3, 7-hydroxy-2-phenyl-chromen-4-one] | > 200 µM | > 200 µM
Cc1cc2oc(-c3ccc(O)c(O)c3)c(O)c(=O)c2cc1C [Compound 26, 2-(3,4-dihydroxyphenyl)-6,7-dimethyl-3-hydroxy-4H-chromen-4-one] | < 10 µM | < 10 µM
CN1CCN(c2ccc(S(=O)(=O)Nc3ccc4oc(-c5ccc(O)c(O)c5)c(O)c(=O)c4c3)cc2[N+](=O)[O-])CC1 [Compound 49, N-[2-(3,4-dihydroxyphenyl)-3-hydroxy-4-oxo-4H-chromen-6-yl]-4-(4-methyl-1-piperazinyl)-3-nitrobenzenesulfonamide] | 31 µM | 1.6 µM
COc1ccc2c(=O)c(O)c(-c3ccc(O)c(O)c3)oc2c1O [Compound 24, 2-(3,4-dihydroxyphenyl)-3,8-dihydroxy-7-methoxy-4H-chromen-4-one] | < 10 µM | < 10 µM
O=c1c(O)c(-c2ccc(O)c(O)c2)oc2ccc(NS(=O)(=O)CCc3cccc4ccccc34)cc12 [Compound 33, N-[2-(3,4-dihydroxyphenyl)-3-hydroxy-4-oxo-4H-chromen-6-yl]-2-(1-naphthyl)-1-ethanesulfonamide] | 63 µM | 5 µM
COc1ccc2c(=O)c(O)c(-c3ccc4c(c3)OCO4)oc2c1 [Compound 6, 2-(benzo[1,3]dioxol-5-yl)-3-hydroxy-7-methoxy-chromen-4-one] | > 100 µM | > 100 µM
O=c1c(O)c(-c2ccc(O)c(O)c2)oc2c(O)c(O)ccc12 [Compound 66, 2-(3,4-dihydroxyphenyl)-3,7,8-trihydroxy-4H-chromen-4-one] | < 10 µM | < 10 µM
O=C(Nc1cccc(Br)c1)Nc1ccc2oc(-c3ccc(O)c(O)c3)c(O)c(=O)c2c1 [Compound 58, N-(3-bromophenyl)-N′-[2-(3,4-dihydroxyphenyl)-3-hydroxy-4-oxo-4H-chromen-6-yl]urea] | 4.2 µM | 4.2 µM
O=c1c(O)c(-c2ccc(O)c(O)c2)oc2ccc(NS(=O)(=O)c3ccc(-c4ccon4)s3)cc12 [Compound 36, N-[2-(3,4-dihydroxyphenyl)-3-hydroxy-4-oxo-4H-chromen-6-yl]-5-(isooxazolyl)-2-thiophenesulfonamide] | 12 µM | 3.5 µM
O=C(Nc1ccc(Br)cc1)Nc1ccc2oc(-c3ccc(O)c(O)c3)c(O)c(=O)c2c1 [Compound 55, N-(4-bromophenyl)-N′-[2-(3,4-dihydroxyphenyl)-3-hydroxy-4-oxo-4H-chromen-6-yl]urea] | 1.3 µM | 0.7 µM
O=c1c(O)c(-c2ccc(O)c(O)c2)oc2ccc(NS(=O)(=O)c3ccc(N4CCOCC4)c([N+](=O)[O-])c3)cc12 [Compound 48, N-[2-(3,4-dihydroxyphenyl)-3-hydroxy-4-oxo-4H-chromen-6-yl]-4-(4-morpholinyl)-3-nitrobenzenesulfonamide] | – | 0.94 µM
